Results as given in patent US20250171460A1, “INDUCERS OF KLF2 AND METHODS OF USE THEREOF” (Riparian Pharmaceuticals, Inc., priority 2022, published 2025).
Like-named read-outs stand apart in the source and are kept apart here.

Test system: primary human endothelial cells expressing luciferase under the control of the KLF2 promoter
Assay: KLF2 Induction Cell Based Bioassay (luciferase reporter)
Conditions: Homo sapiens, Endothelial cell
Source text: In endothelial cell culture media, a stock of the highest working concentration was made at no more than 1% DMSO vehicle. The working stock was then serially diluted 1:2 to make an 11-point concentration response curve. Included in the 96-well plate were 2 reference compounds with known potencies. A DMSO column was included in the 96-well plate at the highest percent vehicle of the working stocks. The 96-well cell culture plate of primary human endothelial cells expressing luciferase under the control of the KLF2 promoter was dosed with 200 μL per well of the dilution series as well as the DMSO control column. The assay plate was incubated at 37° C. for 24 hours. The supernatant was collected at 24 hours.
20 μL of the supernatant was then placed in a 384-well plate with optical duplicates. The corners of the plate received 20 μL of the Gaussia Luciferase Enzyme positive control, as well as 20 μL of the 50 μM Coelenterizine substrate. The plate read is then calibrated using the control, and read using a Molecular Devices SpectraMax iD5, providing luminescence in relative light units (RLU). The plate reader injected 20 μL of the 50 μM Coelenterizine substrate immediately before taking the RLU measurement for each well.
The sample signals were then normalized to the average signal of the DMSO column, as well as to the maximum signal of one of the reference compounds, as shown in the equations below: […]
The EC50 of each compound is then defined as when the concentration response curve passes 0.5.

[1] = Bioactivity of stereoisomers: racemate, read-out: Bioactivity Bucket, Racemate
[2] = 24 h, KLF2 promoter luciferase, 24 hours, 11-point concentration response, read-out: Activity Range (EC50)
[3] = Bioactivity of stereoisomers: R isomer, read-out: Bioactivity Bucket, R

EC50 [2]	SMILES	also measured
	C#CCCN1C(=O)c2oc3ccccc3c2OCC1(C)C(=O)NCc1ccccc1OC (racemic) [Example 5]	EC50 [1]: 0.501 to 5 µM
0.501 to 5 µM	CC=C1CC(N2C(=O)c3oc4ccccc4c3OCC2(C)C(=O)NCc2ccccc2OC)C1 (racemic) [Example 15]	EC50 [1]: 0.501 to 5 µM
0.051 to 0.5 µM	COCCN1C(=O)c2oc3cc(C(=O)NC4(C)COC4)ccc3c2OCC1(C)C(=O)NCc1c(F)cccc1OC (racemic) [Example 81]	EC50 [1]: 0.051 to 0.5 µM
0.051 to 0.5 µM	COc1cccc(F)c1CNC(=O)C1(C)COc2c(oc3ccc(Cl)cc23)C(=O)N1CC(=O)N(C)C (racemic) [Example 106, 9-chloro-4-(2-(dimethylamino)-2-oxoethyl)-N-(2-fluoro-6-methoxybenzyl)-3-methyl-5-oxo-2,3,4,5-tetrahydrobenzofuro[2,3-f][1,4]oxazepine-3-carboxamide]	EC50 [1]: 0.051 to 0.5 µM
0.051 to 0.5 µM	COc1cccc(F)c1CNC(=O)[C@@]1(C)COc2c(oc3ccc(Cl)cc23)C(=O)N1CC(=O)N(C)C (single isomer, unassigned) [Example 107]	EC50 [3]: 0.051 to 0.5 µM
0.501 to 5 µM	COc1ccccc1CNC(=O)C1(C)COc2c(oc3ccccc23)C(=O)N1CC1(F)CCC1 (stereo not drawn) [Example 2]	
0.051 to 0.5 µM	COc1ccccc1CNC(=O)C1(C)COc2c(oc3ccccc23)C(=O)N1CC(C)(C)OC (stereo not drawn) [Example 3]	
0.501 to 5 µM	CCOC(=O)CN1C(=O)c2oc3ccccc3c2OCC1(C)C(=O)NCc1ccccc1OC (stereo not drawn) [Example 4]	
0.501 to 5 µM	C#CCCN1C(=O)c2oc3ccccc3c2OC[C@]1(C)C(=O)NCc1ccccc1OC [Example 6]	EC50 [3]: 0.501 to 5 µM
0.501 to 5 µM	C/C=C/CN1C(=O)c2oc3ccccc3c2OCC1(C)C(=O)NCc1ccccc1OC (stereo not drawn) [Example 9]	
0.501 to 5 µM	COc1ccccc1CNC(=O)C1(C)COc2c(oc3ccccc23)C(=O)N1CC1(OC)CCC1 (stereo not drawn) [Example 10]	
0.501 to 5 µM	COc1ccccc1CNC(=O)C1(C)COc2c(oc3ccccc23)C(=O)N1CC1(O)CCC1 (stereo not drawn) [Example 11]	
0.501 to 5 µM	C=CCN1C(=O)c2oc3ccccc3c2OCC1(C)C(=O)NCc1ccccc1OC (stereo not drawn) [Example 12]	
0.501 to 5 µM	COc1ccccc1CNC(=O)C1(C)COc2c(oc3ccccc23)C(=O)N1C1CCC1 (stereo not drawn) [Example 13]	
0.051 to 0.5 µM	COc1ccccc1CNC(=O)C1(C)COc2c(oc3ccccc23)C(=O)N1C1CC2(CC2)C1 (stereo not drawn) [Example 14]	
0.501 to 5 µM	COCCN1C(=O)c2oc3ccccc3c2OCC1(C)C(=O)NCc1c(F)cc(Cl)cc1OC (stereo not drawn) [Example 16]	
0.501 to 5 µM	COCCN1C(=O)c2oc3ccccc3c2OCC1(C)C(=O)NCc1c(OC)ccc(F)c1Cl (stereo not drawn) [Example 17]	
0.501 to 5 µM	COCCN1C(=O)c2oc3ccccc3c2OCC1(C)C(=O)NCc1cc2ncccc2cc1OC (stereo not drawn) [Example 18]	
0.501 to 5 µM	COCCN1C(=O)c2oc3ccccc3c2OCC1(C)C(=O)NCc1c(OC)ccc2cnccc12 (stereo not drawn) [Example 19]	
0.501 to 5 µM	COCCN1C(=O)c2oc3ccccc3c2OCC1(C)C(=O)NCc1c(OC)ccc2cccnc12 (stereo not drawn) [Example 20]	
0.501 to 5 µM	COCCN1C(=O)c2oc3ccccc3c2OCC1(C)C(=O)NCc1c(OC)ccc(F)c1F (stereo not drawn) [Example 21]	

EC50 [2]	SMILES	also measured
0.501 to 5 µM	COCCN1C(=O)c2oc3ccccc3c2OCC1(C)C(=O)NCc1c(F)cc(F)cc1OC (stereo not drawn) [Example 22]	
0.501 to 5 µM	COCCN1C(=O)c2oc3ccccc3c2OCC1(C)C(=O)NCc1cc(Cl)ccc1OC (stereo not drawn) [Example 23]	
0.501 to 5 µM	COCCN1C(=O)c2oc3ccccc3c2OCC1(C)C(=O)NCc1c(Cl)cccc1OC (stereo not drawn) [Example 24]	
0.501 to 5 µM	COCCN1C(=O)c2oc3ccccc3c2OCC1(C)C(=O)NCc1ccc(Cl)cc1OC (stereo not drawn) [Example 25]	
0.501 to 5 µM	COCCN1C(=O)c2oc3ccccc3c2OCC1(C)C(=O)NCc1c(OC)cccc1C(N)=O (stereo not drawn) [Example 26]	
0.501 to 5 µM	COCCN1C(=O)c2oc3ccccc3c2OCC1(C)C(=O)NCc1c(OC)cccc1C(=O)OC (stereo not drawn) [Example 27]	
0.501 to 5 µM	COCCN1C(=O)c2oc3ccccc3c2OCC1(C)C(=O)NCc1c(C#N)cccc1OC (stereo not drawn) [Example 28]	
0.501 to 5 µM	COCCN1C(=O)c2oc3ccccc3c2OCC1(C)C(=O)NCc1cc(Cl)c(F)cc1OC (stereo not drawn) [Example 29]	
0.501 to 5 µM	COCCN1C(=O)c2oc3ccccc3c2OCC1(C)C(=O)NCc1c(OC)ccc2ccncc12 (stereo not drawn) [Example 30]	
0.501 to 5 µM	COCCN1C(=O)c2oc3ccccc3c2OCC1(C)C(=O)NCc1cc2ccccc2cc1OC (stereo not drawn) [Example 31]	
0.501 to 5 µM	COCCN1C(=O)c2oc3ccccc3c2OCC1(C)C(=O)NCc1c(OC)ccc2ccccc12 (stereo not drawn) [Example 32]	
0.501 to 5 µM	COCCN1C(=O)c2oc3ccccc3c2OCC1(C)C(=O)NCc1c(OC)cccc1OC (stereo not drawn) [Example 33]	
0.501 to 5 µM	COCCN1C(=O)c2oc3ccccc3c2OCC1(C)C(=O)NCc1cc(C)ccc1OC (stereo not drawn) [Example 34]	
0.501 to 5 µM	COCCN1C(=O)c2oc3ccccc3c2OCC1(C)C(=O)NCc1cc(OC)ccc1OC (stereo not drawn) [Example 35]	
0.501 to 5 µM	[2H]C([2H])([2H])Oc1ccccc1CNC(=O)C1(C)COc2c(oc3ccccc23)C(=O)N1CCOC (stereo not drawn) [Example 36]	
0.501 to 5 µM	COCCN1C(=O)c2oc3ccccc3c2OCC1(C)C(=O)NCc1c(F)cccc1OC (stereo not drawn) [Example 37]	
0.501 to 5 µM	COCCN1C(=O)c2oc3ccccc3c2OCC1(C)C(=O)NCc1cc(F)ccc1OC (stereo not drawn) [Example 38]	
0.501 to 5 µM	COCCN1C(=O)c2oc3ccccc3c2OCC1(C)C(=O)NCc1ccc(F)cc1OC (stereo not drawn) [Example 39]	
0.501 to 5 µM	COCCN1C(=O)c2oc3ccccc3c2OC[C@]1(C)C(=O)NCc1ccccc1OC [Example 40]	EC50 [3]: 0.501 to 5 µM
0.501 to 5 µM	COCCN1C(=O)c2oc3ccccc3c2OCC1(C)C(=O)NCc1ccc2ccccc2c1OC (stereo not drawn) [Example 41]	
0.501 to 5 µM	COCCN1C(=O)c2oc3ccccc3c2OCC1(C)C(=O)NCc1ccc(C)cc1OC (stereo not drawn) [Example 43]	

EC50 [2]	SMILES	also measured
0.501 to 5 µM	COCCN1C(=O)c2oc3ccccc3c2OCC1(C)C(=O)NCc1c(Cl)cc(Cl)cc1OC (stereo not drawn) [Example 44]	
0.501 to 5 µM	COCCN1C(=O)c2oc3ccccc3c2OCC1(C)C(=O)NCc1cc(F)c(Cl)cc1OC (stereo not drawn) [Example 45]	
0.501 to 5 µM	COCCN1C(=O)c2oc3ccccc3c2OCC1(C)C(=O)NCc1c(OC)ccc(Cl)c1F (stereo not drawn) [Example 46]	
0.501 to 5 µM	COCCN1C(=O)c2oc3ccccc3c2OCC1(C)C(=O)NCc1ncccc1OC (stereo not drawn) [Example 47]	
0.501 to 5 µM	COCCN1C(=O)c2oc3ccccc3c2OCC1(C)C(=O)NCc1c(Cl)cc(F)cc1OC (stereo not drawn) [Example 48]	
0.501 to 5 µM	COCCN1C(=O)c2oc3cc(C(=O)NC4CCC4)ccc3c2OC[C@@]1(C)C(=O)NCc1ccccc1OC [Example 49, (S)—N8-cyclobutyl-N3-(2-methoxybenzyl)-4-(2-methoxyethyl)-3-methyl-5-oxo-2,3,4,5-tetrahydrobenzofuro[2,3-f][1,4]oxazepine-3,8-dicarboxamide]	EC50 (Bioactivity of stereoisomers: S isomer, read-out: Bioactivity Bucket, S): 0.501 to 5 µM
0.051 to 0.5 µM	COCCN1C(=O)c2oc3cc(C(=O)NC4CCC4)ccc3c2OC[C@]1(C)C(=O)NCc1ccccc1OC [Example 50, (R)—N8-cyclobutyl-N3-(2-methoxybenzyl)-4-(2-methoxyethyl)-3-methyl-5-oxo-2,3,4,5-tetrahydrobenzofuro[2,3-f][1,4]oxazepine-3,8-dicarboxamide]	EC50 [3]: ≤ 0.05 µM
0.051 to 0.5 µM	COc1cccnc1CNC(=O)C1(C)COc2c(oc3cc(C(=O)NC4(C)COC4)ccc23)C(=O)N1CC1CC1 (stereo not drawn) [Example 52]	
0.051 to 0.5 µM	COc1cccnc1CNC(=O)C1(C)COc2c(oc3cc(C(=O)NC4CCC4)ccc23)C(=O)N1CC1CC1 (stereo not drawn) [Example 53]	
0.051 to 0.5 µM	COc1cccnc1CNC(=O)C1(C)COc2c(oc3cc(C(=O)NC4CCC4)ccc23)C(=O)N1[C@H]1C[C@@H](OC)C1 (stereo partly drawn) [Example 54]	
0.051 to 0.5 µM	COc1cccc(C#N)c1CNC(=O)C1(C)COc2c(oc3cc(C(=O)NC4(C)COC4)ccc23)C(=O)N1[C@H]1C[C@@H](OC)C1 (stereo partly drawn) [Example 55]	
0.051 to 0.5 µM	COc1cccc(C#N)c1CNC(=O)C1(C)COc2c(oc3cc(C(=O)NC4CCC4)ccc23)C(=O)N1[C@H]1C[C@@H](OC)C1 (stereo partly drawn) [Example 56]	
0.051 to 0.5 µM	COc1ccc(F)c(F)c1CNC(=O)C1(C)COc2c(oc3cc(C(=O)NC4CCC4)ccc23)C(=O)N1CC1CC1 (stereo not drawn) [Example 58]	
0.051 to 0.5 µM	COc1cc(F)ccc1CNC(=O)C1(C)COc2c(oc3cc(C(=O)NC4(C)COC4)ccc23)C(=O)N1CC1CC1 (stereo not drawn) [Example 59]	
0.051 to 0.5 µM	COCCN1C(=O)c2oc3cc(C(=O)NC4CCC4)ccc3c2OCC1(C)C(=O)NCc1c(OC)ccc(F)c1F (stereo not drawn) [Example 61]	
0.051 to 0.5 µM	COCCN1C(=O)c2oc3cc(C(=O)NC4(C)COC4)ccc3c2OCC1(C)C(=O)NCc1c(C#N)cccc1OC (stereo not drawn) [Example 62]	
0.051 to 0.5 µM	COCCN1C(=O)c2oc3cc(C(=O)NC4(C)COC4)ccc3c2OCC1(C)C(=O)NCc1c(OC)ccc(F)c1F (stereo not drawn) [Example 63]	
0.051 to 0.5 µM	COCCN1C(=O)c2oc3cc(C(=O)NC4(C)COC4)ccc3c2OCC1(C)C(=O)NCc1c(Cl)cccc1OC (stereo not drawn) [Example 64]	
0.051 to 0.5 µM	COc1cccc(C#N)c1CNC(=O)C1(C)COc2c(oc3cc(C(=O)NC4(C)COC4)ccc23)C(=O)N1CC1CC1 (stereo not drawn) [Example 65]	
